Measurements from patent US20260335388A1, “COMBINATION THERAPIES WITH ONCOLYTIC ADENOVIRUS AND TOPOISOMERASE I INHIBITORS OR PRODRUGS THEREOF” (priority 2022, published 2026).
Read-outs that look alike come from different tables or passages of the source.

What was measured:
retinoblastoma cells = type: cell-based; details: infection of retinoblastoma cells with VCN-01
[1] = test system: RBT-7 intracerebral tumors; experiment: Antitumor activity in CNS-disseminated retinoblastoma; type: in vivo, mouse; details: control 22 days; P of combination vs control 0.0004, topotecan 0.0072, standard of care 0.0040, VCN-01 0.0372; animals dying of toxicity excluded (FIG. 22C)
From the text: Antitumor activity in CNS-disseminated retinoblastoma. A model of retinoblastoma dissemination was established in the leptomeninges of the CNS. Anesthetized mice were restrained in a stereotactic apparatus (Stoelting, Wood Dale, IL, USA). Using a mouse brain atlas (Paxinos and Franklin, “The mouse brain in stereotaxic coordinates,” San Diego: Academic Press; 2001), the coordinates of the fourth ventricle were located and the surface of the skull was drilled. Then, […] (RBT-7) in 10 µL matrigel was injected with a dull 22G needle attached to a 50 µL syringe (Hamilton, Bonaduz, Switzerland). One week later, treatments were started with VCN-01 (3×10^9 vp in 20 µL vehicle, intraventricular, day 8), topotecan (0.6 mg/kg, i.p., days 8-12), SoC chemotherapy ([…], 40 mg/kg, i.p., day 8, and etoposide, 6 mg/kg, i.p., days 8-10) or the combination of VCN-01 and chemotherapies. The control group received the vehicle of VCN-01 (intraventricular). Animals achieved experimental endpoints upon deterioration of condition or 20% weight loss. Brains collected at endpoint were embedded in paraffin and stained with hematoxylin and eosin (H&E), human nuclei (MAB4383, 1:200, Millipore), viral protein E1A (ab33183, 1:200, Abcam) and CD45 (leukocyte common antigen; 70257, 1:200, Cell Signaling).

[2] = test system: HSJD-ES-033 Ewing sarcoma; experiment: Antitumor activity in Ewing sarcoma PDX HSJD-ES-033; type: in vivo, mouse; details: single treatment (FIG. 24E,G)
Method: Patient-derived xenograft (PDX) of Ewing sarcoma (pediatric solid tumor) were implanted subcutaneously into athymic nude mice. Tumor model was HSJD-ES-033. Upon engraftment (tumor volumes ranging 100-500 mm^3), combination treatment in which topotecan was administered systemically (intraperitoneal) at a concentration of 0.6 mg/kg/day, on Days 1, 2, 3, 4 and 5, and a single dose of 3×10^9 vp/tumor VCN-01 was administered intratumorally on Day 1, was compared to either of the treatments alone.
(§1) Antitumor activity in extracranial pediatric solid tumors. 5-10 mm^3 fresh fragments of Ewing sarcoma or neuroblastoma PDX were implanted in both flanks of mice. Upon s.c. engraftment (tumor volume 150-200 mm^3), mice received topotecan (0.6 mg/kg, i.p., days 1-5), VCN-01 (3×10^9 vp in 20 µL vehicle, intratumoral, day 1), or the combination. In two additional groups, an alternative topoisomerase 1 inhibitor, irinotecan (10 mg/kg, i.p., on days 1-5) we used in place of topotecan. Upon completion of treatments, tumor volumes were followed until endpoint (1500 mm^3), or until day 80.

[3] = test system: HSJD-NB-005 neuroblastoma; experiment: Antitumor activity in neuroblastoma PDX HSJD-NB-005; type: in vivo, mouse; details: single treatment (FIG. 24D,F)
Method: PDX of neuroblastoma (pediatric solid tumor) were implanted subcutaneously into athymic nude mice. Tumor model was HSJD-NB-005. Upon engraftment (tumor volumes ranging 100-500 mm^3), treatments were started. The activity of topotecan vs. irinotecan in combination with VCN-01 was evaluated. The following groups of mice were included in the study, with an n of 6 tumors per group: • Group 1: no treatment • Group 2: topotecan i.p. at 0.6 mg/kg, Day 1-5 • Group 3: irinotecan i.p. at 10 mg/kg, Day 1-5 • Group 4: VCN-01 i.t at 3E9 vp/tumor, Day 1 • Group 5: VCN-01 i.t at 3E9 vp/tumor, Day 1 (morning)+topotecan i.p. at 0.6 mg/kg, Day 1-5 • Group 6: VCN-01 i.t at 3E9 vp/tumor, Day 1 (morning)+irinotecan i.p. at 10 mg/kg, Day 1-5
as §1

HSJD-RBT-7 tumors = type: in vivo, mouse; details: systemic drug after intratumoral VCN-01 3×10E^9 vp/tumor; 5 days (FIG. 3)
Y79 cells = experiment: Cell cycle of retinoblastoma cells (propidium iodide cytometry); type: cell-based
Method: Then, the cells were collected and fixed in 70% ethanol for 2 h. The propidium iodide (PI)-based assay FxCycle™ PI/RNase (Thermo Fisher Scientific) was used as staining solution prior to quantification by flow cytometry (NovoCyte).

[4] = test system: HSJD-RBVS-10 retinoblastoma cells; experiment: cells; type: cell-based; details: Homo sapiens
E1a = experiment: Immunoblot of E1a / E2F-1 in VCN-01-infected Y79 cells with further chemotherapeutics; type: cell-based
Method: 2 million Y79 retinoblastoma cells were infected with 50 MOIs of VCN-01. […] Etoposide is topoisomerase 2 inhibitor.
In all experiments, 6-well culture plates containing 2×10^6 cells were used. […] The experiments were controlled by adding culture medium instead of the second treatment. […] The analyses were expanded to other chemotherapeutic agents including hydroxyurea ([…]), etoposide (2 μM), irinotecan (10 μM) or SN-38 (1 μM).
Near-infrared labeled secondary antibodies (Odyssey CLx, LI-COR Inc. Bad Homburg, Germany) were used for detection.

Y79 tumors = type: in vivo, mouse; details: systemic drug after intratumoral VCN-01 3×10E^9 vp/tumor; 5 or 15 days (FIGS. 2A-B)
[5] = test system: HSJD-RBT-5 retinoblastoma cells; experiment: cells; type: cell-based; details: Homo sapiens
E2F-1, p21 and cyclin E1 = type: cell-based
[6] = read-out: IC50, Topotecan single agent
[7] = read-out: IC50, Topotecan with VCN-01 (10 MOI)

CC[C@@]1(O)C(=O)OCc2c1cc1n(c2=O)Cc2cc3c(CN(C)C)c(O)ccc3nc2-1 [Topotecan, topotecan]
cell sensitivity to drug after VCN-01 infection (retinoblastoma cells): decreased cell sensitivity | median survival [1]: 28 days | response of xenograft to single treatment [2]: highly resistant | response of xenograft to single treatment [3]: highly resistant | VCN-01 genome content in tumors (HSJD-RBT-7 tumors): increases VCN-01 genome content | percentage of cells in S-phase (Y79 cells; 24 h (FIG. 17A)): increased the percentage of cells in S-phase | duration of S-phase effect (Y79 cells; topotecan 2 μM (FIG. 17B,C)): at least 48 h | IC50 [4, 6]: 29.6 nM | IC50 [4, 7]: 126 nM | expression of VCN-01 proteins (E1a) (E1a; VCN-01 50 MOI, drug added at 24 h, lysis at 48 h (FIG. 7)): similarly to topotecan | expression of E2F-1 and E1A (E1a; Y79 cells pre-exposed to VCN-01 (FIG. 13H)): increased the expression of E2F-1 and E1A similarly to topotecan | VCN-01 genome content in tumors (Y79 tumors): increases VCN-01 genome content | IC50 [5, 6]: 87.9 nM | IC50 [5, 7]: 586 nM | duration of E2F-1, p21 and cyclin E1 increase (E2F-1, p21 and cyclin E1; FIG. 17D): at least 48 h | protein expression of E2F-1, p21 and cyclin E1 (E2F-1, p21 and cyclin E1; Y79 cells (FIG. 17D)): increased protein expression of E2F-1, p21 and cyclin E1 | onset of E2F-1, p21 and cyclin E1 increase (E2F-1, p21 and cyclin E1; after exposure (FIG. 17D)): 1 h
